Key:
A549 = assay: Antiproliferative activity against human A549 cells overexpressing NQO1 assessed as inhibition of cell growth incubated for 72 hrs by MTT assay; type: functional, cell-based; conditions: A549, 72 h
HT-29 [1] = assay: Antiproliferative activity against human HT-29 cells overexpressing NQO1 assessed as inhibition of cell growth incubated for 72 hrs by MTT assay; type: functional, cell-based; conditions: HT-29, 72 h
[2] = Cytotoxicity against human HFL1 cells assessed as inhibition of cell growth incubated for 72 hrs by MTT assay; type: toxicity, cell-based
[3] = Selectivity index, ratio of IC50 for cytotoxicity against human HFL1 cells to IC50 for antiproliferative activity against human HT-29 cells overexpressing NQO1; type: toxicity, cell-based; conditions: HFL1 cells versus HT-29 cells overexpressing NQO1, read-out: Ratio IC50
HT-29 [4] = assay: Antiproliferative activity against human HT-29 cells overexpressing NQO1 assessed as inhibition of cell growth preincubated with NQO1 inhibitor, dicoumarol for 30 mins followed by compound addition and measured after 72 hrs by MTT assay; type: functional, cell-based
[5] = target: NAD(P)H dehydrogenase [quinone] 1 (Homo sapiens) (UniProt P15559); assay: Substrate activity at lyophilized human NQO1 assessed as compound decomposition measured after 6 hrs by HPLC analysis
[6] = Stability of compound in TRIS buffer at pH 7.4 assessed as compound remaining measured after 60 hrs by HPLC analysis; type: physicochemical; conditions: read-out: Stability
HT-29 [7] = assay: Induction of apoptosis in human HT-29 cells assessed as early apoptotic cells at 1 uM incubated for 48 hrs by Annexin V-FITC/PI staining based flow cytometry analysis (Rvb= 2.41%); type: functional
HT-29 [8] = assay: Induction of apoptosis in human HT-29 cells assessed as late apoptotic cells at 1 uM incubated for 48 hrs by Annexin V-FITC/PI staining based flow cytometry analysis (Rvb= 1.04%); type: functional
HT-29 [9] = assay: Induction of apoptosis in human HT-29 cells assessed as viable cells at 2 uM incubated for 48 hrs by Annexin V-FITC/PI staining based flow cytometry analysis (Rvb= 96.54%); type: functional; conditions: read-out: Activity
HT-29 [10] = assay: Induction of apoptosis in human HT-29 cells assessed as early apoptotic cells at 2 uM incubated for 48 hrs by Annexin V-FITC/PI staining based flow cytometry analysis (Rvb= 2.41%); type: functional
HT-29 [11] = assay: Induction of apoptosis in human HT-29 cells assessed as late apoptotic cells at 2 uM incubated for 48 hrs by Annexin V-FITC/PI staining based flow cytometry analysis (Rvb= 1.04%); type: functional
HT-29 [12] = assay: Induction of apoptosis in human HT-29 cells assessed as dead cells at 2 uM incubated for 48 hrs by Annexin V-FITC/PI staining based flow cytometry analysis (Rvb= 0.01%); type: functional
HT-29 [13] = assay: Induction of apoptosis in human HT-29 cells assessed as viable cells at 4 uM incubated for 48 hrs by Annexin V-FITC/PI staining based flow cytometry analysis (Rvb= 96.54%); type: functional; conditions: read-out: Activity
HT-29 [14] = assay: Induction of apoptosis in human HT-29 cells assessed as early apoptotic cells at 4 uM incubated for 48 hrs by Annexin V-FITC/PI staining based flow cytometry analysis (Rvb= 2.41%); type: functional
HT-29 [15] = assay: Induction of apoptosis in human HT-29 cells assessed as late apoptotic cells at 4 uM incubated for 48 hrs by Annexin V-FITC/PI staining based flow cytometry analysis (Rvb= 1.04%); type: functional
HT-29 [16] = assay: Induction of apoptosis in human HT-29 cells assessed as dead cells at 4 uM incubated for 48 hrs by Annexin V-FITC/PI staining based flow cytometry analysis (Rvb= 0.01%); type: functional
HT-29 [17] = assay: Induction of cell cycle arrest in human HT-29 cells assessed as accumulation of cells at G1 phase at 1 uM incubated for 48 hrs by RNaeA/propidium iodide based flow cytometry analysis (reference value: 62.98 %); type: functional
HT-29 [18] = assay: Induction of cell cycle arrest in human HT-29 cells assessed as accumulation of cells at G2 phase at 1 uM incubated for 48 hrs by RNaeA/propidium iodide based flow cytometry analysis (reference value: 13.96 %); type: functional
HT-29 [19] = assay: Induction of cell cycle arrest in human HT-29 cells assessed as accumulation of cells at G1 phase at 2 uM incubated for 48 hrs by RNaeA/propidium iodide based flow cytometry analysis (reference value: 62.98 %); type: functional
HT-29 [20] = assay: Induction of cell cycle arrest in human HT-29 cells assessed as accumulation of cells at G2 phase at 2 uM incubated for 48 hrs by RNaeA/propidium iodide based flow cytometry analysis (reference value: 13.96 %); type: functional
HT-29 [21] = assay: Induction of cell cycle arrest in human HT-29 cells assessed as accumulation of cells at S phase at 2 uM incubated for 48 hrs by RNaeA/propidium iodide based flow cytometry analysis (reference value: 23.06 %); type: functional
HT-29 [22] = assay: Induction of oxidative stress in human HT-29 cells assessed as increase in intracellular ROS generation incubated for 48 hrs by DCF-DA fluorescent probe based flow cytometry analysis; type: functional, cell-based; conditions: dose 1-4 µM, DDE = dose-dependent effect
HT-29 [23] = assay: Induction of apoptosis in human HT-29 cells assessed as upregulation of Bax protein expression incubated for 48 hrs by Western blot analysis; type: functional, cell-based; conditions: dose 1-4 µM, DDE = dose-dependent effect
HT-29 [24] = assay: Induction of apoptosis in human HT-29 cells assessed as upregulation of caspase-3 protein expression incubated for 48 hrs by Western blot analysis; type: functional, cell-based; conditions: dose 1-4 µM, DDE = dose-dependent effect
HT-29 [25] = assay: Induction of apoptosis in human HT-29 cells assessed as downregulation of Bcl-xl protein expression incubated for 48 hrs by Western blot analysis; type: functional, cell-based; conditions: dose 1-4 µM, DDE = dose-dependent effect
HT-29 [26] = assay: Antitumor activity against human HT-29 cells overexpressing NQO-1 xenografted in ICR mouse assessed as reduction in tumor weight at 15 mg/kg, ip administered every day for 21 days and measured every 2 days relative to control; type: functional; parameters: scale not given: the % may be the effect or the level left; conditions: time 21 day
HT-29 [27] = assay: Antitumor activity against human HT-29 cells overexpressing NQO-1 xenografted in ICR mouse assessed as reduction in tumor weight at 30 mg/kg, ip administered every day for 21 days and measured every 2 days relative to control; type: functional; parameters: scale not given: the % may be the effect or the level left; conditions: time 21 day
[28] = Toxicity in […] xenografted with human HT-29 cells overexpressing NQO-1 assessed as reduction in body weight at 30 mg/kg, ip administered for 21 days and measured every 2 days; type: organism-based; conditions: in vivo, 504 h, time 21 day
HT-29 [29] = assay: Induction of mitochondrial membrane potential loss in human HT-29 cells assessed as healthy cells at 2 uM incubated for 48 hrs by JC-1 staining based flow cytometry analysis (reference value: 93.4 %); type: functional
HT-29 [30] = assay: Induction of mitochondrial membrane potential loss in human HT-29 cells assessed as JC-1 monomer formation by measuring increase in green intensity at 2 uM incubated for 48 hrs by JC-1 staining based flow cytometry analysis (reference value: 6.54 %); type: functional
HT-29 [31] = assay: Induction of mitochondrial membrane potential loss in human HT-29 cells assessed as healthy cells at 4 uM incubated for 48 hrs by JC-1 staining based flow cytometry analysis (reference value: 93.4 %); type: functional
HT-29 [32] = assay: Induction of mitochondrial membrane potential loss in human HT-29 cells assessed as JC-1 monomer formation by measuring increase in green intensity at 4 uM incubated for 48 hrs by JC-1 staining based flow cytometry analysis (reference value: 6.54 %); type: functional

NAD(P)H dehydrogenase [quinone] 1 (Homo sapiens), sequence (P15559 whole entry): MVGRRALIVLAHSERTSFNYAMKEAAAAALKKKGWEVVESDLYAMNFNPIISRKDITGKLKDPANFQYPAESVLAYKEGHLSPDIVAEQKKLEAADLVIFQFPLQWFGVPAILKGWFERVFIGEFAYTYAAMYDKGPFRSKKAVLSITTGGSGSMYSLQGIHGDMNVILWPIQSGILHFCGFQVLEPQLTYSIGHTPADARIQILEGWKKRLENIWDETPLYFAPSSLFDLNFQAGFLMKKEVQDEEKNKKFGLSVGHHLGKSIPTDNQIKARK

C=C(C)[C@@H]1CC[C@]2(C(=O)OCCOC(=O)CCC(=O)OCc3cn(C)c4c3C(=O)C(OC)=CC4=O)CC[C@]3(C)[C@H](CC[C@@H]4[C@@]5(C)CC[C@H](O)[C@@](C)(CO)[C@@H]5CC[C@]43C)[C@@H]12
IC50 (A549): 2.36 µM
IC50 (HT-29 [1]): 1.87 µM
IC50 at 72 h [2]: 6.45 µM
selectivity ratio [3]: 4.16
IC50 (HT-29 [4]): 9.22 µM
Activity [5]: 50%
remaining at 60 h [6]: 80%
Activity (HT-29 [7]): 12.54%
Activity (HT-29 [8]): 9.81%
viability at 2 µM (HT-29 [9]): 55.7%
Activity (HT-29 [10]): 22.49%
Activity (HT-29 [11]): 16.77%
Activity (HT-29 [12]): 5.03%
viability at 4 µM (HT-29 [13]): 38.4%
Activity (HT-29 [14]): 32.28%
Activity (HT-29 [15]): 22.58%
Activity (HT-29 [16]): 6.74%
Activity (HT-29 [17]): 56.44%
Activity (HT-29 [18]): 20.54%
Activity (HT-29 [19]): 52.73%
Activity (HT-29 [20]): 25.17%
Activity (HT-29 [21]): 22.1%
Activity (HT-29 [22]): Dde
Activity (HT-29 [23]): Dde
Activity (HT-29 [24]): Dde
Activity (HT-29 [25]): Dde
Activity (HT-29 [26]): 55.89%
Activity (HT-29 [27]): 72.69%
Activity [28]: Non-Toxic
Activity (HT-29 [29]): 66.47%
Activity (HT-29 [30]): 33.41%
Activity (HT-29 [31]): 55.52%
Activity (HT-29 [32]): 44.48%

From ChEMBL document CHEMBL5113483, “Design and synthesis of NAD(P)H: Quinone oxidoreductase (NQO1)-activated prodrugs of 23-hydroxybetulinic acid with enhanced antitumor properties” (Eur J Med Chem, 2022)
